Data published in patent publication US20090099237A1, “Methods of treating inflammatory diseases” (Roche Palo Alto LLC, priority 2007, published 2009).

Experiments:
CK1α = biological target: T1, CK1α (Homo sapiens, UniProt P48729); experiment: In vitro kinase assay (33P, peptide substrate); assay type: biochemical
T1 construct: purchased Invitrogen

[1] = tested on: IL-8 production in neutrophils; experiment: Neutrophil assay, IL-8 production; assay type: cell-based; settings: human neutrophils stimulated by inflammatory agents; FIG. 2
Excerpt: (§1) Selective CK1α, CK1α-CK1δ, CK1α-CK1ε or CK1α-CK1δ-CK1ε inhibitors can be tested for their antiinflammatory effects using a variety of in vitro and in vivo tests that are well known in the art. One such in vitro test involves the application of the inhibitor to human neutrophils to observe whether the induction of inflammatory cytokines, such as IL-8, by tumor necrosis factor (TNF) or lipopolysaccharide (LPS) can be reduced. This test is further described in Example 3. An example of an in vivo test, as described in Example 4, is the air pouch model of inflammatory synovitis in mice in which the inhibitors are tested for their blockade of neutrophil influx as well as of inflammatory cytokine accumulation.
The Histopaque 1077 and 1119 gradient density centrifugation method (Sigma-Aldrich) was used to isolate granulocytes from human blood. The granulocytes were recovered from the 1077/1119 interphase, washed twice with PBS. The red blood cells were lysed with PureGene red cell lysis buffer (Gentra Biosystems). The cells were washed again and resuspended in growth media (RPMI, 10% FBS, β-mercaptoethanol, Pen/Strep/glutamine and sodium pyruvate) at a density of 1 to 5 million per ml. […] The supernatant was analyzed for cytokine production (Luminex human 22-plex assay) and the cells were lysed for RNA production and analysis.

[2] = tested on: LPS-induced air pouch synovitis; experiment: Air pouch synovitis model; assay type: in vivo, Balbc/J mice; settings: 1 μg LPS, FIG. 3
Excerpt: as §1
Adult Balbc/J mice were purchased from Charles River Labs and housed and utilized according IACUC protocols and standards. The airpouch was inflated on the dorsal surface of each mouse with 3 ml of air, after light anesthesia with CO2/O2 mix. Three days later each pouch was re-inflated with 3 mls of air. After an additional three days, the pouches were injected with vehicle or compound (normally in 0.1% DMSO in PBS) in 1 ml per pouch. After 20 to 30 minutes, each pouch received 1 μg of LPS or control (PBS). The animals were euthanized four to six hours later. The pouches were flushed with 2 ml of PBS, the cells were then collected, counted and normalized for volume recovered. The fluid recovered was analyzed for cytokine production (Luminex Mouse 21-plex assay). The cells were lysed for RNA or protein analysis.

T1 sequence (P48729 whole entry): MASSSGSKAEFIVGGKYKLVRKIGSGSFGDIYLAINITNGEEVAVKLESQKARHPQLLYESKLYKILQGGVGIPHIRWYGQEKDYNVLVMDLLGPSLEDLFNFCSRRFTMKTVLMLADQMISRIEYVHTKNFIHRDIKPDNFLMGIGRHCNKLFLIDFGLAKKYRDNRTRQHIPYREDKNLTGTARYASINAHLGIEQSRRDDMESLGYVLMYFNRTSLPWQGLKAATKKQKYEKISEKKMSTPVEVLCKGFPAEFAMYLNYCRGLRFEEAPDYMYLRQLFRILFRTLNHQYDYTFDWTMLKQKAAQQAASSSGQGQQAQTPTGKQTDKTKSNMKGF

IC50 (CK1α): 1400 nM
Structure (SMILES): NC(=O)c1ccc(-c2nc(-c3ccc4c(c3)OCO4)c(-c3ccccn3)[nH]2)cc1 [SB431542, 4-(4-benzo-[1,3]dioxol-5-yl-5-pyridin-2-yl-1H-imidazol-2-yl)benzamide]
inhibition of IL-8 production in neutrophils [1]: dose-dependent inhibition
production of IL-6 ([2]; mouse air pouch fluid): inhibited
production of MCP1 ([2]; mouse air pouch fluid): inhibited
neutrophil influx ([2]; mouse air pouch, compound injected into pouch): inhibited
